Measured values taken from patent US20160214996A1, “MACROCYCLIC COMPOUNDS FOR THE TREATMENT OF PROLIFERATIVE DISEASES” (CS Pharmasciences, Inc., priority 2013, published 2016).

Assays:
ALK wild type = target: T1, ALK wild type (Homo sapiens, UniProt Q9UM73); assay: ALK wild type standard HTRF enzyme assay; type: biochemical; settings: 0.5 nM ALK wild type, 30 μM ATP, 90 minutes at room temperature, read-out: IC50 (nM) ALK_wt
T1 construct: purchased Carna Biosciences (Japan)
Description: (§1) Wild type ALK and L1196M mutant ALK enzyme inhibition by the compounds of formula (I) was measured using an HTRF assay.
(§2) ALK wild type and ALK L1196M were acquired from Carna Biosciences (Japan). A standard HTRF kit (containing Eu-labeled TK1 antibody, XL665, biotin conjugated TK1 peptide, 5× enzymatic buffer and 1×HTRF detection buffer) were purchased from Cis-Bio International. Plates were read on an Envision multi-label plate reader (Perkin Elmer).
(§3) In both assays, the compounds were tested in 11 doses in duplicate with 3-fold dilution as the final concentrations were from 10 μM to 0.17 nM. Compound 13a was tested with lower top concentrations of 1 μM due to high potency.
The enzyme reaction mixture of ALK wild type standard HTRF assay contained 0.5 nM ALK wild type, 1 μM biotin-TK1 peptide, 30 μM ATP and 50 nM SEB in 1× enzymatic reaction buffer containing 50 mM (pH 7.0) HEPES, 5 mM MgCl2, 0.02% NaN3, 0.01% BSA, 0.1 mM Orthovanadate and 1 mM DTT at a final volume of 10 μl. The enzyme reaction was carried out at room temperature in white Proxiplate 384-Plus plate (PerkinElmer) for 90 minutes.
(§4) The detection reagents ([…]) were added at final concentrations of 2 nM antibody and 62.5 nM XL665. The plates were incubated at room temperature for 60 minutes and then read in the Envision plate reader.
(§5) The readouts were transformed into inhibition rate % by the equation of (Ratio-Min)/(Max-Min)*100%.

ALK L1196M = target: T2, ALK L1196M (Homo sapiens, UniProt Q9UM73, L1196M); assay: ALK L1196M standard HTRF enzyme assay; type: biochemical; settings: 0.15 nM ALK L1196M, 30 μM ATP, 60 minutes at room temperature, read-out: IC50 (nM) ALK_L1196M
T2 construct: purchased Carna Biosciences (Japan)
T2 sequence (Q9UM73 19-1620 L1196M): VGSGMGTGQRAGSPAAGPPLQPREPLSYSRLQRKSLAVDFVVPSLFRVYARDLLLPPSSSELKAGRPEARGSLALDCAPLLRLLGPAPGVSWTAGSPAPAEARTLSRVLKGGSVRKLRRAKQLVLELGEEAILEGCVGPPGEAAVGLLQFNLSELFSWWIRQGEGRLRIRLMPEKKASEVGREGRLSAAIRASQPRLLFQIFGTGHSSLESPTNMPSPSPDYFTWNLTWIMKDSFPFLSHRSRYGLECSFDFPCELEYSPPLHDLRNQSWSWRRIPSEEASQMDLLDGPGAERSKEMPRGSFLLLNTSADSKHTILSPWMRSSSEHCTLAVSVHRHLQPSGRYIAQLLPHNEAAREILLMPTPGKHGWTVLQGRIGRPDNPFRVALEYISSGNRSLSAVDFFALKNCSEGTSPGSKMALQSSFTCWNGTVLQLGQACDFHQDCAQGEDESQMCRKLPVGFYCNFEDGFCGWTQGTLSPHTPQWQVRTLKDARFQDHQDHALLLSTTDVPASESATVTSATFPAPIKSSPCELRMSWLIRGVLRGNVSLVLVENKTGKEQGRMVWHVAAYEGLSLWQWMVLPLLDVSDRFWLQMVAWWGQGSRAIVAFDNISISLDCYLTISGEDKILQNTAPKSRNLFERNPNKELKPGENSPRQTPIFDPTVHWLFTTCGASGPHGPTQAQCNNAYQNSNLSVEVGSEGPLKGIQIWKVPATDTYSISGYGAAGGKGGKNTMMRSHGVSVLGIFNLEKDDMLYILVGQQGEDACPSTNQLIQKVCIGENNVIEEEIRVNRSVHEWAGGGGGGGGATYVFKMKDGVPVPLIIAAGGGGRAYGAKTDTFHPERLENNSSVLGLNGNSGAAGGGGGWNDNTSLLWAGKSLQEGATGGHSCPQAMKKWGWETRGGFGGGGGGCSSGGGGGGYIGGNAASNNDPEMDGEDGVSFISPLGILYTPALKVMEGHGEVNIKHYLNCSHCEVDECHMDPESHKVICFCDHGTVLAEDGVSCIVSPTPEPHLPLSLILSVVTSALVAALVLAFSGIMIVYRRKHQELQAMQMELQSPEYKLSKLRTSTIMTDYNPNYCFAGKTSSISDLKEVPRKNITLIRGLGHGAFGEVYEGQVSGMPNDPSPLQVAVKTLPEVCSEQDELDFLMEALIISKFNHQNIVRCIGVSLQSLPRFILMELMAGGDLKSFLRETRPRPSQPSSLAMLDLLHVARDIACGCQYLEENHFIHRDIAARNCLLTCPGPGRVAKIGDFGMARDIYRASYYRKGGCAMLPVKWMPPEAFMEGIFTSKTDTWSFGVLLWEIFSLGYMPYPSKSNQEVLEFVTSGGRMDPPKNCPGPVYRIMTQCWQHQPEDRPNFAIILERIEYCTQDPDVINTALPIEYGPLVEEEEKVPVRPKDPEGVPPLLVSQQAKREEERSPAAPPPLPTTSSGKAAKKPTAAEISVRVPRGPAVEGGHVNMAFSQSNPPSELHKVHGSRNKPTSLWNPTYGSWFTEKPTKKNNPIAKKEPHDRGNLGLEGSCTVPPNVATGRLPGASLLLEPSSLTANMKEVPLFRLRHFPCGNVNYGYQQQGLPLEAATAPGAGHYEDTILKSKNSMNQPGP
Description: as §1, §2, §3
[…]. The enzyme reaction was carried out at room temperature in white Proxiplate 384-Plus plate (PerkinElmer) for 60 minutes.
as §4, §5

T1 sequence (Q9UM73 19-1620): as the sequence (Q9UM73 19-1620 L1196M) above, with M1178L counted along it

IC50 (ALK wild type)	IC50 (ALK L1196M)	SMILES
7430 nM	–	CC1Oc2cc(cnc2N)-c2c(nn(C)c2C#N)N(C)C(=O)COc2ccc(F)cc21 (single isomer, unassigned) [Compound 17]
2370 nM	–	CC1Oc2cc(cnc2N)-c2c(nn(C)c2C#N)NC(=O)COc2ccc(F)cc21 (stereo not shown) [Compound 15]
34.8 nM	529 nM	CC1Oc2cc(cnc2N)-c2c(nn(C)c2C#N)N(C)C(=O)COc2ccc(F)cc21 (single isomer, unassigned) [Compound 16]
